Reference: patent publication US11001587B2, “Substituted indazoles as phosphatidylinositol kinase inhibitors” (CUROVIR AB, priority 2017, dated 2021)

Columns and labels:
Assay type in all cases: cell-based
Enterovirus 6 = assay: In vitro CPE assay in mammalian cell culture, EV6; settings: viral cytopathic effect in mammalian cell culture, read-out: EV6 inhibition capacity (IC50)
Enterovirus 30 = assay: In vitro CPE assay in mammalian cell culture, EV30; settings: viral cytopathic effect in mammalian cell culture, read-out: EV30 inhibition capacity (IC50)
Enterovirus 68 = assay: In vitro CPE assay in mammalian cell culture, EV68; settings: Enterovirus D, viral cytopathic effect in mammalian cell culture, read-out: EV68 inhibition capacity (IC50)
Enterovirus 71 = assay: In vitro CPE assay in mammalian cell culture, EV71; settings: Enterovirus A, viral cytopathic effect in mammalian cell culture, read-out: EV71 inhibition capacity (IC50)
coxsackie B1 virus = assay: In vitro CPE assay in mammalian cell culture, B1; settings: viral cytopathic effect in mammalian cell culture, read-out: B1 inhibition capacity (IC50)
coxsackie B2 virus = assay: In vitro CPE assay in mammalian cell culture, B2; settings: viral cytopathic effect in mammalian cell culture, read-out: B2 inhibition capacity (IC50)
coxsackie B3 virus = assay: In vitro CPE assay in mammalian cell culture, B3; settings: Enterovirus B, viral cytopathic effect in mammalian cell culture, read-out: B3 inhibition capacity (IC50)
coxsackie B4 virus = assay: In vitro CPE assay in mammalian cell culture, B4; settings: Enterovirus B, viral cytopathic effect in mammalian cell culture, read-out: B4 inhibition capacity (IC50)
polio virus Sabin 1 = assay: organism not typed; settings: read-out: Polio 1 inhibition capacity (IC50)
coxsackie B5 virus = assay: In vitro CPE assay in mammalian cell culture, B5; settings: viral cytopathic effect in mammalian cell culture, read-out: B5 inhibition capacity (IC50)

Cc1cc(NCc2ccc(Cl)cc2)c2nc(C)c(-c3ccc4c(c3)c(C)nn4C)n2n1 [Example 3, N-(4-chlorobenzyl)-3-(1,3-dimethyl-1H-indazol-5-yl)-2,6-dimethylimidazo[1,2-b]pyridazin-8-amine]
IC50 (Enterovirus 6): < 1000 nM
IC50 (Enterovirus 30): < 1000 nM
IC50 (Enterovirus 68): < 1000 nM
IC50 (Enterovirus 71): < 1000 nM
IC50 (coxsackie B1 virus): < 100 nM
IC50 (coxsackie B2 virus): < 1000 nM
IC50 (coxsackie B3 virus): < 1000 nM
IC50 (coxsackie B4 virus): < 1000 nM
IC50 (polio virus Sabin 1): < 1000 nM

COc1ccc(CNc2cc(C)nn3c(-c4ccc5c(c4)c(C)nn5C)c(C)nc23)cn1 [Example 4, 3-(1,3-dimethyl-1H-indazol-5-yl)-N-((6-methoxypyridin-3-yl)methyl)-2,6-dimethylimidazo[1,2-b]pyridazin-8-amine]
IC50 (Enterovirus 6): < 1000 nM
IC50 (Enterovirus 30): < 100 nM
IC50 (Enterovirus 68): < 1000 nM
IC50 (Enterovirus 71): < 100 nM
IC50 (coxsackie B1 virus): < 100 nM
IC50 (coxsackie B2 virus): < 100 nM
IC50 (coxsackie B3 virus): < 100 nM
IC50 (coxsackie B4 virus): < 100 nM
IC50 (polio virus Sabin 1): < 1000 nM

Cc1cc(NCc2cccs2)c2nc(C)c(-c3ccc4c(c3)c(C)nn4C)n2n1 [Example 5, 3-(1,3-dimethyl-1H-indazol-5-yl)-2,6-dimethyl-N-(thiophen-2-ylmethyl)imidazo[1,2-b]pyridazin-8-amine]
IC50 (Enterovirus 6): < 100 nM
IC50 (Enterovirus 30): < 100 nM
IC50 (Enterovirus 68): < 1000 nM
IC50 (Enterovirus 71): < 100 nM
IC50 (coxsackie B1 virus): < 1 nM
IC50 (coxsackie B2 virus): < 100 nM
IC50 (coxsackie B3 virus): < 100 nM
IC50 (coxsackie B4 virus): < 100 nM
IC50 (polio virus Sabin 1): < 100 nM

COc1ccc(CNc2cc(C)nn3c(-c4ccc5c(c4)c(C)nn5C)c(C)nc23)cc1 [Example 6, 3-(1,3-dimethyl-1H-indazol-5-yl)-N-(4-methoxybenzyl)-2,6-dimethylimidazo[1,2-b]pyridazin-8-amine]
IC50 (Enterovirus 30): < 1000 nM
IC50 (Enterovirus 68): < 1000 nM
IC50 (coxsackie B1 virus): < 1000 nM
IC50 (coxsackie B2 virus): < 1000 nM
IC50 (coxsackie B3 virus): < 1000 nM
IC50 (coxsackie B4 virus): < 1000 nM
IC50 (coxsackie B5 virus): < 1000 nM
IC50 (polio virus Sabin 1): < 1000 nM

Cc1ccc(CNc2cc(C)nc3c(-c4ccc5c(c4)c(C)nn5C)c(C)nn23)cn1 [Example 9, 3-(1,3-dimethyl-1H-indazol-5-yl)-2,5-dimethyl-N-((6-methylpyridin-3-yl)methyl)pyrazolo[1,5-a]pyrimidin-7-amine]
IC50 (Enterovirus 6): < 1000 nM
IC50 (Enterovirus 30): < 100 nM
IC50 (Enterovirus 68): < 100 nM
IC50 (Enterovirus 71): < 100 nM
IC50 (coxsackie B1 virus): < 10 nM
IC50 (coxsackie B2 virus): < 10 nM
IC50 (coxsackie B3 virus): < 10 nM
IC50 (coxsackie B4 virus): < 100 nM
IC50 (coxsackie B5 virus): < 100 nM
IC50 (polio virus Sabin 1): < 100 nM

COc1ccc(CNc2cc(C)nc3c(-c4ccc5c(c4)c(C)nn5C)c(C)nn23)cc1 [Example 10, 3-(1,3-dimethyl-1H-indazol-5-yl)-N-(4-methoxybenzyl)-2,5-dimethylpyrazolo[1,5-a]pyrimidin-7-amine]
IC50 (Enterovirus 6): < 1000 nM
IC50 (Enterovirus 30): < 100 nM
IC50 (Enterovirus 68): < 1000 nM
IC50 (Enterovirus 71): < 1000 nM
IC50 (coxsackie B1 virus): < 1000 nM
IC50 (coxsackie B2 virus): < 1000 nM
IC50 (coxsackie B3 virus): < 100 nM
IC50 (coxsackie B4 virus): < 100 nM
IC50 (coxsackie B5 virus): < 100 nM
IC50 (polio virus Sabin 1): < 1000 nM

Cc1cc(NCc2ccc(Cl)cc2)n2nc(C)c(-c3ccc4c(c3)c(C)nn4C)c2n1 [Example 11, N-(4-chlorobenzyl)-3-(1,3-dimethyl-1H-indazol-5-yl)-2,5-dimethylpyrazolo[1,5-a]pyrimidin-7-amine]
IC50 (Enterovirus 6): < 1000 nM
IC50 (Enterovirus 30): < 1000 nM
IC50 (Enterovirus 68): < 1000 nM
IC50 (Enterovirus 71): < 1000 nM
IC50 (coxsackie B1 virus): < 1000 nM
IC50 (coxsackie B2 virus): < 1000 nM
IC50 (coxsackie B3 virus): < 1000 nM
IC50 (coxsackie B4 virus): < 100 nM
IC50 (coxsackie B5 virus): < 1000 nM
IC50 (polio virus Sabin 1): < 1000 nM

COc1ccc(CNc2cc(C)nc3c(-c4ccc5c(c4)c(C)nn5C)c(C)nn23)cn1 [Example 14, 3-(1,3-dimethyl-1H-indazol-5-yl)-N-((6-methoxypyridin-3-yl)methyl)-2,5-dimethylpyrazolo[1,5-a]pyrimidin-7-amine]
IC50 (Enterovirus 6): < 1000 nM
IC50 (Enterovirus 30): < 100 nM
IC50 (Enterovirus 68): < 1000 nM
IC50 (Enterovirus 71): < 1000 nM
IC50 (coxsackie B1 virus): < 1000 nM
IC50 (coxsackie B2 virus): < 1000 nM
IC50 (coxsackie B3 virus): < 10 nM
IC50 (coxsackie B4 virus): < 10 nM
IC50 (coxsackie B5 virus): < 1000 nM
IC50 (polio virus Sabin 1): < 100 nM

Cc1cc(NCc2cccs2)n2nc(C)c(-c3ccc4c(c3)c(C)nn4C)c2n1 [Example 15, 3-(1,3-dimethyl-1H-indazol-5-yl)-2,5-dimethyl-N-(thiophen-2-ylmethyl)pyrazolo[1,5-a]pyrimidin-7-amine]
IC50 (Enterovirus 6): < 100 nM
IC50 (Enterovirus 30): < 100 nM
IC50 (Enterovirus 68): < 100 nM
IC50 (Enterovirus 71): < 100 nM
IC50 (coxsackie B1 virus): < 100 nM
IC50 (coxsackie B2 virus): < 100 nM
IC50 (coxsackie B3 virus): < 100 nM
IC50 (coxsackie B4 virus): < 100 nM
IC50 (coxsackie B5 virus): < 100 nM
IC50 (polio virus Sabin 1): < 100 nM

Cc1cc(NCc2ccc(NS(C)(=O)=O)cc2)n2nc(C)c(-c3ccc4c(c3)c(C)nn4C)c2n1 [Example 16, N-(4-(((3-(1,3-dimethyl-1H-indazol-5-yl)-2,5-dimethylpyrazolo[1,5-a]pyrimidin-7-yl)amino)meth-yl)phenyl)methane-sulfonamide]
IC50 (Enterovirus 6): < 1000 nM
IC50 (Enterovirus 30): < 1000 nM
IC50 (Enterovirus 68): < 1000 nM
IC50 (Enterovirus 71): < 1000 nM
IC50 (coxsackie B1 virus): < 1000 nM
IC50 (coxsackie B2 virus): < 1000 nM
IC50 (coxsackie B3 virus): < 100 nM
IC50 (coxsackie B4 virus): < 100 nM
IC50 (coxsackie B5 virus): < 1000 nM
IC50 (polio virus Sabin 1): < 1000 nM

Cc1cc(NCc2ccc(C(F)(F)F)nc2)n2nc(C)c(-c3ccc4c(c3)c(C)nn4C)c2n1 [Example 17, 3-(1,3-dimethyl-1H-indazol-5-yl)-2,5-dimethyl-N-((6-trifluoromethylpyridin-3-yl)methyl)pyrazolo[1,5-a]pyrimidin-7-amine]
IC50 (Enterovirus 6): < 1000 nM
IC50 (Enterovirus 30): < 1000 nM
IC50 (Enterovirus 71): < 100 nM
IC50 (coxsackie B2 virus): < 1000 nM
IC50 (coxsackie B3 virus): < 1000 nM
IC50 (coxsackie B4 virus): < 1000 nM
IC50 (coxsackie B5 virus): < 1000 nM
IC50 (polio virus Sabin 1): < 1000 nM

Cc1cc(NCc2ccccc2)n2nc(C)c(-c3ccc4c(c3)c(C)nn4C)c2n1 [Example 18, N-(benzyl)-3-(1,3-dimethyl-1H-indazol-5-yl)-2,5-dimethylpyrazolo[1,5-a]pyrimidin-7-amine]
IC50 (Enterovirus 6): < 1000 nM
IC50 (Enterovirus 71): < 10 nM
IC50 (coxsackie B2 virus): < 100 nM
IC50 (coxsackie B3 virus): < 100 nM
IC50 (coxsackie B4 virus): < 1000 nM
IC50 (coxsackie B5 virus): < 1000 nM
IC50 (polio virus Sabin 1): < 100 nM

Cc1cc(NCc2ccc(F)cc2)n2nc(C)c(-c3ccc4c(c3)c(C)nn4C)c2n1 [Example 19, N-(4-fluorobenzyl)-3-(1,3-dimethyl-1H-indazol-5-yl)-2,5-dimethylpyrazolo[1,5-a]pyrimidin-7-amine]
IC50 (Enterovirus 6): < 1000 nM
IC50 (Enterovirus 71): < 100 nM
IC50 (coxsackie B2 virus): < 1000 nM
IC50 (coxsackie B3 virus): < 100 nM
IC50 (coxsackie B4 virus): < 1000 nM
IC50 (coxsackie B5 virus): < 1000 nM
IC50 (polio virus Sabin 1): < 1000 nM

COc1ccc(CNc2nc(C)nc3c(-c4ccc5c(c4)c(C)nn5C)c(C)nn23)cc1 [Example 21, 8-(1,3-dimethyl-1H-indazol-5-yl)-N-(4-methoxybenzyl)-2,7-dimethylpyrazolo[1,5-a][1,3,5]triazin-4-amine]
IC50 (Enterovirus 30): < 1000 nM
IC50 (Enterovirus 68): < 1000 nM
IC50 (Enterovirus 71): < 100 nM
IC50 (coxsackie B1 virus): < 1000 nM
IC50 (coxsackie B2 virus): < 1000 nM
IC50 (coxsackie B3 virus): < 100 nM
IC50 (coxsackie B4 virus): < 1000 nM
IC50 (coxsackie B5 virus): < 1000 nM
IC50 (polio virus Sabin 1): < 10 nM

Cc1ccc(CNc2nc(C)nc3c(-c4ccc5c(c4)c(C)nn5C)c(C)nn23)cn1 [Example 22, 8-(1,3-dimethyl-1H-indazol-5-yl)-2,7-dimethyl-N-((6-methylpyridin-3-yl)methyl)pyrazolo[1,5-a][1,3,5]triazin-4-amine]
IC50 (Enterovirus 6): < 1000 nM
IC50 (Enterovirus 30): < 100 nM
IC50 (Enterovirus 68): < 100 nM
IC50 (Enterovirus 71): < 10 nM
IC50 (coxsackie B1 virus): < 10 nM
IC50 (coxsackie B2 virus): < 10 nM
IC50 (coxsackie B3 virus): < 1 nM
IC50 (coxsackie B4 virus): < 1000 nM
IC50 (coxsackie B5 virus): < 100 nM
IC50 (polio virus Sabin 1): < 1 nM

Cc1nc(NCc2ccc(NS(C)(=O)=O)cc2)n2nc(C)c(-c3ccc4c(c3)c(C)nn4C)c2n1 [Example 26, N-(4-(((8-(1,3-dimethyl-1H-indazol-5-yl)-2,7-dimethylpyrazolo[1,5-a][1,3,5]triazin-4-yl)amino)meth-yl)phenyl)methane-sulfonamide]
IC50 (Enterovirus 6): < 1000 nM
IC50 (Enterovirus 30): < 100 nM
IC50 (Enterovirus 68): < 100 nM
IC50 (Enterovirus 71): < 100 nM
IC50 (coxsackie B1 virus): < 10 nM
IC50 (coxsackie B2 virus): < 100 nM
IC50 (coxsackie B3 virus): < 100 nM
IC50 (coxsackie B4 virus): < 100 nM
IC50 (polio virus Sabin 1): < 1000 nM

Cc1nc(NCc2cccs2)n2nc(C)c(-c3ccc4c(c3)c(C)nn4C)c2n1 [Example 27, 8-(1,3-dimethyl-1H-indazol-5-yl)-2,7-dimethyl-N-(thiophen-2-ylmethyl)pyrazolo[1,5-a][1,3,5]triazin-4-amine]
IC50 (Enterovirus 6): < 100 nM
IC50 (Enterovirus 30): < 100 nM
IC50 (Enterovirus 68): < 100 nM
IC50 (Enterovirus 71): < 100 nM
IC50 (coxsackie B1 virus): < 1 nM
IC50 (coxsackie B2 virus): < 1 nM
IC50 (coxsackie B3 virus): < 10 nM
IC50 (coxsackie B4 virus): < 1 nM
IC50 (polio virus Sabin 1): < 100 nM

COc1ccc(CNc2nc(C)nc3c(-c4ccc5c(c4)c(C)nn5C)c(C)nn23)cn1 [Example 28, 8-(1,3-dimethyl-1H-indazol-5-yl)-N-((6-methoxypyridin-3-yl)methyl)-2,7-dimethylpyrazolo[1,5-a][1,3,5]triazin-4-amine]
IC50 (Enterovirus 6): < 1000 nM
IC50 (Enterovirus 30): < 100 nM
IC50 (Enterovirus 68): < 1000 nM
IC50 (Enterovirus 71): < 100 nM
IC50 (coxsackie B1 virus): < 10 nM
IC50 (coxsackie B2 virus): < 100 nM
IC50 (coxsackie B3 virus): < 100 nM
IC50 (coxsackie B4 virus): < 100 nM
IC50 (polio virus Sabin 1): < 1000 nM
